Data from US8889676B2, “3-ureidoisoquinolin-8-yl derivatives” (Actelion Pharmaceuticals Ltd., priority 2011, dated 2014).
In brackets after ≈: the same amount, converted by molar mass.

Test system: S. pneumoniae ATCC 49619
Assay: Minimal inhibitory concentration (MIC) by broth microdilution (CLSI M7-A7)
Assay type: cell-based, Streptococcus pneumoniae
Details: Streptococcus pneumoniae, ATCC49619; cation-adjusted Mueller Hinton Broth supplemented with 3% (v/v) lysed horse blood; microdilution method
Outline: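 Broth microdilution per CLSI M7-A7 in cation-adjusted Mueller-Hinton broth with 3% (v/v) lysed horse blood for S. pneumoniae. MIC in mg/l.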

`C#CC(=O)NCc1ccc(-c2ccnc(C)c2)c2cc(NC(=O)NCC)ncc12` [Example 155, propynoic acid [3-(3-ethyl-ureido)-5-(2-methyl-pyridin-4-yl)-isoquinolin-8-ylmethyl]-amide] and `C#CCOC(=O)NCc1ccc(-c2ccnc(C)c2)c2cc(NC(=O)NCC)ncc12` [Example 158, [3-(3-ethyl-ureido)-5-(2-methyl-pyridin-4-yl)-isoquinolin-8-ylmethyl]-carbamic acid prop-2-ynyl ester] are the same in MIC: 0.5 µg/mL (≈ 1.29 µM) for the first, 0.5 µg/mL (≈ 1.2 µM) for the second.

`CCNC(=O)Nc1cc2c(-c3ccnc(C)c3)ccc(CNC(=O)c3ncc[nH]3)c2cn1` [Example 156, 1H-imidazole-2-carboxylic acid [3-(3-ethyl-ureido)-5-(2-methyl-pyridin-4-yl)-isoquinolin-8-ylmethyl]-amide] and `CCNC(=O)Nc1cc2c(-c3ccnc(C)c3)ccc(CNC(=O)OC)c2cn1` [Example 175, [3-(3-ethyl-ureido)-5-(2-methyl-pyridin-4-yl)-isoquinolin-8-ylmethyl]-carbamic acid methyl ester] are the same in MIC: 0.5 µg/mL (≈ 1.16 µM) for the first, 0.5 µg/mL (≈ 1.27 µM) for the second.

`CCNC(=O)Nc1cc2c(-c3ccnc(C)c3)ccc(CNC(=O)CCOC)c2cn1` [Example 157, N-[3-(3-ethyl-ureido)-5-(2-methyl-pyridin-4-yl)-isoquinolin-8-ylmethyl]-3-methoxy-propionamide] and `CCNC(=O)Nc1cc2c(-c3ccnc(C)c3)ccc(CNC(=O)OC(C)(C)C)c2cn1` [Example 176, [3-(3-ethyl-ureido)-5-(2-methyl-pyridin-4-yl)-isoquinolin-8-ylmethyl]-carbamic acid tert-butyl ester] are the same in MIC: 1 µg/mL (≈ 2.37 µM) for the first, 1 µg/mL (≈ 2.3 µM) for the second.

Compared with `CCNC(=O)Nc1cc2c(Cl)ccc(CNC(=O)OC)c2cn1` [Example 159, [5-chloro-3-(3-ethyl-ureido)-isoquinolin-8-ylmethyl]-carbamic acid methyl ester], `CCNC(=O)Nc1cc2c(-c3ccnc(F)c3)ccc(CNC(=O)OC)c2cn1` [Example 161, [3-(3-ethyl-ureido)-5-(2-fluoro-pyridin-4-yl)-isoquinolin-8-ylmethyl]-carbamic acid methyl ester] is 2-fold lower in MIC: 1 µg/mL (≈ 2.97 µM) for the first, 0.5 µg/mL (≈ 1.26 µM) for the second.

Compared with `CCNC(=O)Nc1cc2c(-c3ccnc(C4CC4)c3)ccc(CNC(=O)OC)c2cn1` [Example 160, [5-(2-cyclopropyl-pyridin-4-yl)-3-(3-ethyl-ureido)-isoquinolin-8-ylmethyl]-carbamic acid methyl ester], `CCNC(=O)Nc1cc2c(-c3ccnc(O)c3)ccc(CNC(=O)OC)c2cn1` [Example 168, [3-(3-ethyl-ureido)-5-(2-hydroxy-pyridin-4-yl)-isoquinolin-8-ylmethyl]-carbamic acid methyl ester] is 4-fold higher in MIC: 2 µg/mL (≈ 4.77 µM) for the first, 8 µg/mL (≈ 20.2 µM) for the second.

First: CCNC(=O)Nc1cc2c(-c3ccnc(OC)c3)ccc(CNC(=O)OC)c2cn1 [Example 162, [3-(3-ethyl-ureido)-5-(2-methoxy-pyridin-4-yl)-isoquinolin-8-ylmethyl]-carbamic acid methyl ester]
Second: CCNC(=O)Nc1cc2c(-c3ccnc(OCC)c3)ccc(CNC(=O)OC)c2cn1 [Example 166, [5-(2-ethoxy-pyridin-4-yl)-3-(3-ethyl-ureido)-isoquinolin-8-ylmethyl]-carbamic acid methyl ester]
The MIC of the first is 2-fold lower: 1 µg/mL (≈ 2.44 µM) for the first, 2 µg/mL (≈ 4.72 µM) for the second.

First: CCNC(=O)Nc1cc2c(-c3ccnc(N)c3)ccc(CNC(=O)OC)c2cn1 [Example 163, [5-(2-amino-pyridin-4-yl)-3-(3-ethyl-ureido)-isoquinolin-8-ylmethyl]-carbamic acid methyl ester]
Second: CCNC(=O)Nc1cc2c(-c3ccnc(CC)c3)ccc(CNC(=O)OC)c2cn1 [Example 170, [5-(2-ethyl-pyridin-4-yl)-3-(3-ethyl-ureido)-isoquinolin-8-ylmethyl]-carbamic acid methyl ester]
The MIC of the first is 2-fold lower: 0.5 µg/mL (≈ 1.27 µM) for the first, 1 µg/mL (≈ 2.45 µM) for the second.

`CCNC(=O)Nc1cc2c(-c3cc(C)nc(C)c3)ccc(CNC(=O)OC)c2cn1` [Example 164, [5-(2,6-dimethyl-pyridin-4-yl)-3-(3-ethyl-ureido)-isoquinolin-8-ylmethyl]-carbamic acid methyl ester] and `CCNC(=O)Nc1cc2c(-c3cc(F)nc(F)c3)ccc(CNC(=O)OC)c2cn1` [Example 172, [5-(2,6-difluoro-pyridin-4-yl)-3-(3-ethyl-ureido)-isoquinolin-8-ylmethyl]-carbamic acid methyl ester] are the same in MIC: 1 µg/mL (≈ 2.45 µM) for the first, 1 µg/mL (≈ 2.41 µM) for the second.

`CCNC(=O)Nc1cc2c(-c3ccnc(C(F)(F)F)c3)ccc(CNC(=O)OC)c2cn1` [Example 165, [3-(3-ethyl-ureido)-5-(2-trifluoromethyl-pyridin-4-yl)-isoquinolin-8-ylmethyl]-carbamic acid methyl ester] and `CCNC(=O)Nc1cc2c(-c3ccnc(OC(C)(C)C)c3)ccc(CNC(=O)OC)c2cn1` [Example 167, [5-(2-tert-butoxy-pyridin-4-yl)-3-(3-ethyl-ureido)-isoquinolin-8-ylmethyl]-carbamic acid methyl ester] are the same in MIC: 4 µg/mL (≈ 8.94 µM) for the first, 4 µg/mL (≈ 8.86 µM) for the second.

`CCNC(=O)Nc1cc2c(-c3ccnc(N4CCOCC4)c3)ccc(CNC(=O)OC)c2cn1` [Example 169, [3-(3-ethyl-ureido)-5-(2-morpholin-4-yl-pyridin-4-yl)-isoquinolin-8-ylmethyl]-carbamic acid methyl ester] and `CCNC(=O)Nc1cc2c(-c3ccnc(N4CCCC4)c3)ccc(CNC(=O)OC)c2cn1` [Example 171, [3-(3-ethyl-ureido)-5-(2-pyrrolidin-1-yl-pyridin-4-yl)-isoquinolin-8-ylmethyl]-carbamic acid methyl ester] are the same in MIC: 4 µg/mL (≈ 8.61 µM) for the first, 4 µg/mL (≈ 8.92 µM) for the second.

Going from `CCNC(=O)Nc1cc2c(-c3ccnc(OC(C)C)c3)ccc(CNC(=O)OC)c2cn1` [Example 173, [3-(3-ethyl-ureido)-5-(2-isopropoxy-pyridin-4-yl)-isoquinolin-8-ylmethyl]-carbamic acid methyl ester] to `CCNC(=O)Nc1cc2c(-c3ccnc(C)c3C)ccc(CNC(=O)OC)c2cn1.Cl` [Example 189, [5-(2,3-dimethyl-pyridin-4-yl)-3-(3-ethyl-ureido)-isoquinolin-8-ylmethyl]-carbamic acid methyl ester hydrochloride], the MIC rises from 4 µg/mL (≈ 9.14 µM) to 8 µg/mL (2-fold).

`CCNC(=O)Nc1cc2c(-c3ccnc(N4CCCCC4)c3)ccc(CNC(=O)OC)c2cn1` [Example 174, [3-(3-ethyl-ureido)-5-(3,4,5,6-tetrahydro-2H-[1,2′]bipyridinyl-4′-yl)-isoquinolin-8-ylmethyl]-carbamic acid methyl ester] and `CCNC(=O)Nc1cc2c(-c3ccnc(F)c3C)ccc(CNC(=O)OC)c2cn1.Cl` [Example 187, [3-(3-ethyl-ureido)-5-(2-fluoro-3-methyl-pyridin-4-yl)-isoquinolin-8-ylmethyl]-carbamic acid methyl ester hydrochloride] are the same in MIC: 4 µg/mL (≈ 8.65 µM) for the first, 4 µg/mL for the second.

`CCNC(=O)Nc1cc2c(-c3ccnc(CCC(N)=O)c3)ccc(CNC(=O)OCCOC)c2cn1` [Example 177, [5-[2-(2-carbamoyl-ethyl)-pyridin-4-yl]-3-(3-ethyl-ureido)-isoquinolin-8-ylmethyl]-carbamic acid 2-methoxy-ethyl ester] and `CCNC(=O)Nc1cc2c(-c3ccnc(C(N)=O)c3)ccc(CNC(=O)OCCOC)c2cn1` [Example 179, [5-(2-carbamoyl-pyridin-4-yl)-3-(3-ethyl-ureido)-isoquinolin-8-ylmethyl]-carbamic acid 2-methoxy-ethyl ester] are the same in MIC: 8 µg/mL (≈ 16.2 µM) for the first, 8 µg/mL (≈ 17.1 µM) for the second.

Going from `CCNC(=O)Nc1cc2c(-c3ccnc(CC(=O)OC(C)(C)C)c3)ccc(CNC(=O)OCCOC)c2cn1` [Example 178, (4-{3-(3-ethyl-ureido)-8-[(2-methoxy-ethoxycarbonylamino)-methyl]-isoquinolin-5-yl}-pyridin-2-yl)-acetic acid tert-butyl ester] to `CCNC(=O)Nc1cc2c(-c3ccnc(C)c3)ccc(CN(C)C(=O)OCCOC)c2cn1` [Example 181, [3-(3-ethyl-ureido)-5-(2-methyl-pyridin-4-yl)-isoquinolin-8-ylmethyl]-methyl-carbamic acid 2-methoxy-ethyl ester], the MIC rises from 2 µg/mL (≈ 3.72 µM) to 8 µg/mL (≈ 17.7 µM) (4-fold).

Compared with `CCNC(=O)Nc1cc2c(-c3ccnc(C)c3)ccc(CN(C)C(=O)OC)c2cn1` [Example 180, [3-(3-ethyl-ureido)-5-(2-methyl-pyridin-4-yl)-isoquinolin-8-ylmethyl]-methyl-carbamic acid methyl ester], `CCNC(=O)Nc1cc2c(-c3cc(C)ncc3C)ccc(CNC(=O)OC)c2cn1.Cl` [Example 190, [5-(2,5-dimethyl-pyridin-4-yl)-3-(3-ethyl-ureido)-isoquinolin-8-ylmethyl]-carbamic acid methyl ester hydrochloride] is 2-fold lower in MIC: 8 µg/mL (≈ 19.6 µM) for the first, 4 µg/mL for the second.

Going from `CCNC(=O)Nc1cc2c(-c3ccncc3)ccc(CNC(=O)OCCC(N)=O)c2cn1` [Example 182, [3-(3-ethyl-ureido)-5-pyridin-4-yl-isoquinolin-8-ylmethyl]-carbamic acid 2-carbamoyl-ethyl ester] to `CCNC(=O)Nc1cc2c(-c3ccncc3F)ccc(CNC(=O)OC)c2cn1.Cl` [Example 184, [3-(3-ethyl-ureido)-5-(3-fluoro-pyridin-4-yl)-isoquinolin-8-ylmethyl]-carbamic acid methyl ester hydrochloride], the MIC falls from 2 µg/mL (≈ 4.58 µM) to 1 µg/mL (2-fold).

Compared with `CCNC(=O)Nc1cc2cccc(CNC(=O)c3cnn[nH]3)c2cn1` [Example 183, 3H-[1,2,3]triazole-4-carboxylic acid [3-(3-ethyl-ureido)-isoquinolin-8-ylmethyl]-amide], `CCNC(=O)Nc1cc2c(-c3cc(F)ncc3C)ccc(CNC(=O)OC)c2cn1.Cl` [Example 186, [3-(3-ethyl-ureido)-5-(2-fluoro-5-methyl-pyridin-4-yl)-isoquinolin-8-ylmethyl]-carbamic acid methyl ester hydrochloride] is 2-fold higher in MIC: 1 µg/mL (≈ 2.95 µM) for the first, 2 µg/mL for the second.

`CCNC(=O)Nc1cc2c(-c3ccncc3C)ccc(CNC(=O)OC)c2cn1.Cl` [Example 185, [3-(3-ethyl-ureido)-5-(3-methyl-pyridin-4-yl)-isoquinolin-8-ylmethyl]-carbamic acid methyl ester hydrochloride] and `CCNC(=O)Nc1cc2c(-c3cc(C)ncc3F)ccc(CNC(=O)OC)c2cn1.Cl` [Example 188, [3-(3-ethyl-ureido)-5-(5-fluoro-2-methyl-pyridin-4-yl)-isoquinolin-8-ylmethyl]-carbamic acid methyl ester hydrochloride] are the same in MIC: 2 µg/mL for the first, 2 µg/mL for the second.
